Test results reported in patent US9572890B2, “Oral formulations of mitochondrially-targeted antioxidants and their preparation and use” (MITOTECH SA, priority 2011, dated 2017).

Key:
[1] = system: full-thickness dermal wounds of db/db mice; test: Wound healing in db/db diabetic mice; type: in vivo; conditions: SkQ1 in 20% glycerol, 250 nmol/kg per day, 10 to 12 weeks; 7 days after wounding
Excerpt: Wound healing was studied in two series using 6 months old C57BLKS-Leprdb/J mice (db/db) homozygous and heterozygous C57BLKS-Leprdb/J mice (db/+) mice. These mice are used as type II diabetes model with impaired wound healing (Michaels, et al. (2007) Wound Repair and Regeneration, 15:665-670).
The mice were daily administered 250 nmol/kg body weight per day with the pharmaceutical form of SkQ1 in 20% glycerol as described in Example 8) during period of time from 10 weeks to 12 weeks. Control groups of db/db and db/+ mice were not treated with SkQ1. Full-thickness dermal wounds were made under anesthesia of ketamine (80 mg/kg). Animals were kept in plastic cages under standard temperature, light, and feeding regimes. 7 days after wounding, animals were sacrificed by decapitation. The wounds were excised, fixed in 10% formalin in standard PBS buffer, histologically processed, and embedded in paraffin. Histological sections of central part of the wounds were cut and stained with hematoxylin and eosin. The sections were immunohistochemically stained for markers of endothelial cells (CD31), macrophages (f4/80), and myofibroblasts (smooth muscle α-actin). ImageJ software (National Institutes of Health (NIH) http:/rsb.info.nih.gov/ij/) was used to calculate total amount of cells, number of neutrophils, macrophages and vessel density (vessel area/granulation tissue area*100) on the microphotographs of wound sections. For each animal 100 mm^2 of section area was analyzed. Wound epithelization rate was assessed in % as ratio of epithelized wound area to total wound area on tissue section*100. For statistical analysis nonparametric Mann-Whitney U-test was used. Data are shown as means±S.E.M.

[2] = Stability of MTAs in liquid solvents (degradation rate); type: physicochemical
Procedure: Liquid solvents were also tested for their ability to stabilize representative MTAs SkQ1 and SkQR1. The solvents tested were water solutions of glycerol (10% to 100%), 50% lactulose, and 1,2-propylene glycol (10% to 100%, at 60° C.). Some representative results are shown below (Table 1).

ICAM-1 mRNA = ICAM-1 mRNA level in aortas of old mice; type: in vivo; conditions: 24 months old C57Black/CBA mice; SkQ1 in drinking water for 7 months
Procedure: As described above in Example 7A, above, the expression of ICAM-1 is elevated under many pathological vascular conditions. SkQ1 efficacy in reducing ICAM-1 expression in vivo was tested on mice. 30 hybrid male C57Black/CBA mice were divided into 3 experimental groups (10 animals in each group) at the beginning of the experiment. The group “Young mice” included mice at the age of 6 months. Groups “Old mice” and “Old mice, SkQ1” included mice at the age of 24 months. The group “Old mice, SkQ1” had free access to drinking water with 100 nM water-dissolved SkQ1 per 1 kg of body weight for 7 months. After this period, the animals were decapitated. Aortas were excised, and total RNA was isolated using […] Blood and Tissue kit (QIAGEN), reverse-transcribed into cDNA, and used for quantitative real-time PCR analysis of ICAM-1 mRNA level. For the normalization procedure the average geometry of expression levels of housekeeping genes GAPDH and RPL32 was used Data are shown as means±S.E.M.

ICAM-1 mRNA expression = ICAM-1 mRNA expression induced by TNF-α in EAhy926 cells (real-time PCR); type: cell-based, human; conditions: 0.2 nM for 4 d; TNF-α 0.05 ng/ml for 4 h
Excerpt: The effects of SkQ1 on ICAM-1 mRNA expression and cytokines (IL-6, IL-8) protein secretion induced by TNF-α in EAhy926 human endothelial cells (ATCC collection; catalog number CRL-2922) were examined. TNF-α is a central proinflammatory cytokine stimulating expression of cell adhesion molecules and many inflammatory cytokines. Anti-inflammatory properties of many drugs often rely on their ability to inhibit expression of pro-inflammatory cytokines induced by TNF-α using EAhy926 endothelial cells (Edgell et al. (1983) Proc. Natl. Acad. Sci. USA, 80:3734-7; Lombardi et al. (2009) Eur. J. Cell. Biol., 88:731-42; Manea et al. (2010) Cell Tissue Res., 340:71-9).
300,000 cells were plated on 60 mm^2 culture dishes and after attachment were treated with an SkQ1 solution (0.2 nM in DMEM medium with 10% fetal serum) for 4 d, and then stimulated with TNF-α (0.05 ng/ml for 4 h for ICAM-1 or 5 ng/ml for 15 h for cytokines, respectively). ICAM-1 mRNA expression was determined by real-time PCR (Okada et al. (2005) Invest. Ophtalmol. Vis. Sci., 46:4512-8). Secretion of IL-6 and IL-8 was evaluated by ELISA (Toma et al. (2009) Biochem. Biophys. Res. Commun., 390:877-82; Volanti et al. (2002) Photochem. Photobiol., 75:36-45.) The data is shown as means±S.E. at least for 3 separate experiments.

[3] = system: human endothelial cells EA.hy926; test: TNF-α induced death of endothelial cells (MTT test); type: cell-based; conditions: 2 nM pre-incubation 4 d; TNF-α 0.25 to 50 ng/ml for 2 d
Procedure: Human endothelial cell line EA.hy926 (ATCC Collection; catalog number CRL-2922) was used as a model of vascular endothelium. This cell line is similar to primary HUVEC cell line (Edgell et al. (1983) PNAS, 80(12):3734-7; Edgell et al. (1990) In Vitro Cell Dev Biol., 26(12):1167-72) and widely used as a relevant model for inflammation studies (Riesbeck et al. (1998) Clin. Vaccine Immunol., 5:5675-682).
Accordingly, human endothelial cells EA.hy926 were pre-incubated with 0.2 nM SkQR1 or 2 nM SkQ1 solution in Dulbecco's Modified Eagle's Medium (DMEM) supplemented with 10% of fetal serum (Example 1) for 4 d. After that the cells were incubated overnight with fresh DMEM medium with 0.2% of fetal serum. The cells were incubated 2 d with TNF-α (0.25 ng/ml to 50 ng/ml) and cell death was monitored using standard MTT test (Berridge et al. (1996) Biochemica, 4:14-9). The data from this assay is shown as means±S.E. at least for 3 separate experiments.

- Degradation rate, percent per day ([2]; 400 mkM in 10% 1,2-propylene glycol, at 60° C.): 0.47 percent per day
- Degradation rate, percent per day ([2]; 400 mkM in 10% Glycerol): 0.61 percent per day
- Degradation rate, percent per day ([2]; 400 mkM in 20% Glycerol): 0.51 percent per day
- Degradation rate, percent per day ([2]; 400 mkM in 30% Glycerol): 0.53 percent per day
- Degradation rate, percent per day ([2]; 400 mkM in 40% Glycerol): 0.91 percent per day
- Degradation rate, percent per day ([2]; 400 mkM in 50% 1,2-propylene glycol, at 60° C.): 0.06 percent per day
- Degradation rate, percent per day ([2]; 400 mkM in 50% Glycerol): 1.54 percent per day
- Degradation rate, percent per day ([2]; 400 mkM in 50% lactulose): 9.01 percent per day
- Degradation rate, percent per day ([2]; 400 mkM in 60% Glycerol): 1.92 percent per day
- Degradation rate, percent per day ([2]; 400 mkM in 70% Glycerol): 2.4 percent per day
- Degradation rate, percent per day ([2]; 400 mkM in 80% Glycerol): 3.2 percent per day
- Degradation rate, percent per day ([2]; 400 mkM in 90% Glycerol): 4.18 percent per day
- Degradation rate, percent per day ([2]; 400 mkM in 100% 1,2-propylene glycol, at 60° C.): 0.18 percent per day
Compound: CC1=C(C)C(=O)C(CCCCCCCCCC[P+](c2ccccc2)(c2ccccc2)c2ccccc2)=CC1=O [SkQ1]
- neutrophil infiltration of wounds [1]: decreasing
- rate of epithelization of wounds [1]: increasing
- vascularization of wounds (vessel density) [1]: increasing
- ICAM-1 mRNA levels in aorta of treated old mice compared to the control group (ICAM-1 mRNA): significantly lowered
- expression of ICAM-1 (ICAM-1 mRNA expression): prevents excessive expression
- cell death compared to control without MTA [3]: greatly reduced
